Results taken from patent publication US20250120975A1, “INTEGRIN INHIBITORS FOR TREATMENT OF PRIMARY SCLEROSING CHOLANGITIS” (Pliant Therapeutics, Inc., priority 2023, published 2025).

Tested on: PCLivS from human liver tissue with biliary fibrosis (PSC, PBC)
Test: Fibrotic gene expression (NanoString) in precision cut liver slices
Assay type: cell-based
Settings: PCLivS from a single PSC liver, 2 days
Excerpt: A human liver tissue explant was obtained from a PSC patient undergoing liver transplantation.
Slicing: To slice, 8-mm cores were punctured from the liver tissue and were stored in ice cold UW solution until slicing. A tissue core was glued onto the center of the plunger of the specimen syringe for slicing. The core was embedded in 2% low gelling temperature agarose made up in milliQ water. The thickness of the slice was adjusted to 400 μm and was sectioned into oxygenated KHB occurs. The slices were stored in cold UW solution on ice until all slices were cut.
Culture: The compounds were diluted to 1000× concentration in 100% DMSO. The compounds were diluted in a medium with a final concentration of 0.1% DMSO before transferring the slices and making a fresh medium for each 24-H medium change. Before being used for slice culture, all media was equilibrated in the incubator at culture conditions for 30 minutes. After all slices have been cut, all slices were transferred to wells prefilled with oxygenated, warmed, and equilibrated WEGG. The slices were incubated for 1 hour in the incubator at a temperature of 37° C., 5% CO2, 80% 02, 100% humidity on shaking platform set at 55 rpm. After this one-hour recovery, the slices were transferred to wells prefilled with oxygenated, warmed, and equilibrated WEGG with appropriate treatments. The slices were distributed into the treatment groups to account for inter-core variability. The slices were cultured at 37° C., 80% 02, 5% CO2, 100% humidity on shaking platform set at 55 rpm. The medium was changed after 24 hours.
The slices were removed from the well and rinsed in PBS. Excess liquid was removed. The slices were transferred to a microtube pooling all three slices from the same treatment into one tube. The pooled slices were snap frozen in liquid nitrogen and placed on dry ice until all samples were collected and then transferred to −80° C. for storage. For media collection, 140 μL of medium was pooled from each well within a treatment group and transferred to a 96-well Axygen plate. After sealing the plate, spin down occurred at 4000×g for 10 minutes at 4° C. Then, 130 μL aliquots were transferred into 3 new plates. The plates were sealed and stored at −80° C.
(S)-4-((2-methoxyethyl)(4-(5,6,7,8-tetrahydro-1,8-naphthyridin-2-yl)butyl)amino)-2-(quinazolin-4-ylamino)butanoic acid was tested at 100 nM, 1 μM, and 10 μM. OCA, an FXR agonist in clinical trials for PSC, was used at 250 nM and 2.5 μM reflecting Cmax levels observed in clinical trials. An ALK5 inhibitor (R268712) was used at 1 μM (400 times its IC50 per manufacturer) to target max inhibition of the ALK5 receptor.
Methods: Lysis buffer was made with one third RLT buffer in RNAse-free water and 2 mg/mL proteinase K. About 100-200 μL lysis buffer was added to each pool of 3 liver slices. Samples were incubated at 55° C. in the bead bath for 2 hours and 45 minutes, vortexing every 30 minute. Samples were centrifuged and the supernatant aliquoted in 15 μL aliquots into 96-well Axygen plates.
Methods: nCounter PlexSet was run according to standard protocol. Briefly, probe A and probe B were diluted with TE-tween to Working Probe Pools and mixed with hybridization buffer. This master mix was added to the A-H PlexSets and mixed. Each PlexSet was added across a row to a 96 well qPCR plate and proteinase K was added to a final concentration of 2 mg/mL. Lysate from samples was added to appropriate wells and mixed. The plate was sealed, spun, and placed in thermocycler at 67° C. for 16 hours. Hybridized samples were pooled down columns and 35 μL were loaded on a Sprint Cartridge and run on the nCounter Sprint. Data analysis was performed in nSolver using background thresholding based on negative controls, positive control normalization, reference sample normalization and normalization to housekeeping genes (GUSB, HPRT1, POLR1B, RPLP0, SRFS4, and/or UBC). […]

Cc1cccc(-c2[nH]ncc2-c2ccc(F)c(-c3cnn(CCO)c3)c2)n1 [Alk5 Inh., reference compound]
% Inhibition of expression COL1A1 (1 μM): 79%
% Inhibition of expression COL1A2 (1 μM): 46%

CC[C@H]1[C@@H](O)[C@@H]2[C@H](CC[C@]3(C)[C@@H]([C@H](C)CCC(=O)O)CC[C@@H]23)[C@@]2(C)CC[C@@H](O)C[C@@H]12 [OCA, obeticholic acid, reference compound]
% Inhibition of expression COL1A1 (250 nM): 44%
% Inhibition of expression COL1A2 (250 nM): 19%
% Inhibition of expression COL1A1 (2.5 μM): 35%
% Inhibition of expression COL1A2 (2.5 μM): 15%
